A short description of data set [1]: Test Example 8: Solubility test. The class given is physicochemical. The settings on record: fassgf or other biorelevant, kinetic from dmso stock; 1% DMSO addition, artificial intestinal juice pH 6.8, 16 hours at 25° C. The protocol:
The solubility of a compound of the present invention was determined under 1% DMSO addition conditions. A 10 mmol/L solution of the compound was prepared with DMSO, and 6 μL of the solution of the compound of the present invention was added to 594 μL of an artificial intestinal juice (water and 118 mL of 0.2 mol/L NaOH reagent were added to 250 mL of 0.2 mol/L potassium dihydrogen phosphate reagent to reach 1000 mL) with a pH of 6.8. The mixture was left standing for 16 hours at 25° C., and the mixture was vacuum-filtered. The filtrate was two-fold diluted with methanol/water=1/1 (V/V), and the compound concentration in the filtrate was measured with HPLC or LC/MS/MS by the absolute calibration method.

The nature of data set [2]: Test Example 9: Metabolism stability test. The class given is in vitro ADME. The settings on record: human liver microsomes 0.5 mg protein/mL, 30 minutes at 37° C., NADPH, compound concentration 0.5 μmol/L. The procedure:
Metabolism Stability Test
Using a commercially available pooled human hepatic microsomes, a compound of the present invention was reacted for a constant time, a remaining rate was calculated by comparing a reacted sample and an unreacted sample, thereby, a degree of metabolism in liver was assessed.
A reaction was performed (oxidative reaction) at 37° C. for 0 minute or 30 minutes in the presence of 1 mmol/L NADPH in 0.2 mL of a buffer (50 mmol/L Tris-HCl pH 7.4, 150 mmol/L potassium chloride, 10 mmol/L magnesium chloride) containing 0.5 mg protein/mL of human liver microsomes. After the reaction, 50 μL of the reaction mixture was added to 100 μL of a methanol/acetonitrile=1/1 (v/v), mixed and centrifuged at 3000 rpm for 15 minutes. The compound of the present invention in the supernatant was quantified by LC/MS/MS, and a remaining amount of the compound of the present invention after the reaction was calculated, letting a compound amount at 0 minute reaction time to be 100%. Hydrolysis reaction was performed in the absence of NADPH and glucuronidation reaction was in the presence of 5 mmol/L UDP-glucuronic acid in place of NADPH, followed by similar operations.
(Results) Compound concentration: 0.5 μmol/L
In general terms: Liver microsomes are vesicles of endoplasmic reticulum, rich in cytochrome P450 enzymes.

Data set [3] has as its target T1, human TRPV4 (hTRPV4/CHO cells) (Homo sapiens, UniProt Q9HBA0).
T1 construct: expressed in transfected cells; host or cells: CHO-K1
Nature of the data set: Test Example 4: TRPV4 inhibitory activity (Ki value), 4α-PDD stimulation, Fluo-3 calcium fluorescence (FDSS 3000). The class given is cell-based. The settings on record: Test Example 4, 4α-PDD stimulation, read-out: Test 4 Ki. A digest of the protocol: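 hTRPV4/CHO-K1 cells loaded with 5 μmol/L Fluo-3 in HBSS/HEPES pH 7.5 with probenecid; compound (10 μmol/L to 0.5 nmol/L final, 10 points) added before 4α-PDD, fluorescence read 8 min at Ex 480/Em 540 nm. Max−Min signal normalised to 10 μM Ruthenium Red (100%) and no compound (0%); IC50 converted to Ki using 4α-PDD EC50.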

T1 sequence (Q9HBA0 whole entry): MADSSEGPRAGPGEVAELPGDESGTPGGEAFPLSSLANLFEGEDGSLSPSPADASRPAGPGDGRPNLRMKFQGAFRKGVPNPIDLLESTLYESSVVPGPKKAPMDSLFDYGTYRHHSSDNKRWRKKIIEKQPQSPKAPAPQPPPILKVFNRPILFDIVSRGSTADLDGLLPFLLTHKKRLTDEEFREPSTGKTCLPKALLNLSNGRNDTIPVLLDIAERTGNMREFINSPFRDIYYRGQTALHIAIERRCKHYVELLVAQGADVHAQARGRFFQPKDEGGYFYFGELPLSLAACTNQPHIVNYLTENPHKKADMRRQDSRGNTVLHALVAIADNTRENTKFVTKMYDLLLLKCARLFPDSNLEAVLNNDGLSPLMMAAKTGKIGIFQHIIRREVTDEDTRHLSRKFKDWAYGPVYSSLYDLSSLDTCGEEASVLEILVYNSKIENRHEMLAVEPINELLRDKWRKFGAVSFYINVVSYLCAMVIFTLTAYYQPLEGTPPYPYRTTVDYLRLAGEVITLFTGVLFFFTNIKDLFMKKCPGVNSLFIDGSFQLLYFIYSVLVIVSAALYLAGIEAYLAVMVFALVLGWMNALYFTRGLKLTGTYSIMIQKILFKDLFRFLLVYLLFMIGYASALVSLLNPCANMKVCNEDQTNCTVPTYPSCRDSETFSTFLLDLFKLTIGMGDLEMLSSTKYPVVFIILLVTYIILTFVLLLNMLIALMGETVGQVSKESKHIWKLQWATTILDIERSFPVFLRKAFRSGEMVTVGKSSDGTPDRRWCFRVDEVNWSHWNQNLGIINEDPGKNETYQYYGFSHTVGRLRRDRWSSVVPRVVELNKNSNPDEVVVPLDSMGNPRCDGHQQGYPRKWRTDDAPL

For orientation: solubility means the concentration that dissolves in the medium under given conditions. What is called Ki is the dissociation constant of the complex between target and ligand, obtained from inhibition or displacement. Turning to `Cc1nc(C)c(-c2csc(NC(=O)Cc3ccc(S(C)(=O)=O)cc3)n2)s1` [Compound I-17], the solubility at 16 h in data set [1] was > 50 µM. The “Metabolism stability: remaining amount of the compound after the reaction” value in data set [2] worked out at 92.2%. In addition, the Ki in data set [3] was 100 to 1000 nM.

`Cc1nc(C)c(-c2csc(NC(=O)C3CCC(F)(F)C3)n2)s1` (stereo not drawn) [Compound I-18]: the solubility at 16 h in data set [1] is > 50 µM. In addition, the “Metabolism stability: remaining amount of the compound after the reaction” value in data set [2] came out at 86.4%. Moreover, the Ki in data set [3] was < 100 nM.

Values taken from US20170066759A1, “AROMATIC 5-MEMBERED HETEROCYCLIC DERIVATIVE HAVING TRPV4-INHIBITING ACTIVITY” (Shionogi & Co., Ltd., priority 2012, published 2017).
